The values that follow come from publication PMC3350427, “In vitro antiproliferative/cytotoxic activity on cancer cell lines of a cardanol and a cardol enriched from Thai Apis mellifera propolis” (BMC Complementary and Alternative Medicine, 2012).

In brackets after ≈: the same amount, converted by molar mass. Several values for one entry are separate records, joined by “and”; a condition that tells them apart may be missing. Equal entries are not always repeated. Where two headings read alike, the source gives them in different places.

Data set [1] relates to BT474 cells (duet carcinoma). Nature of the data set: MTT antiproliferative/cytotoxic assay, BT474. It counts as cell-based, human. Particulars: for IC50: Homo sapiens, BT-474, BT474, 72 h exposure, MTT, read-out: IC50, in vitro antiproliferative/cytotoxic activity. An excerpt: (§1) The five selected cancer cell lines used in this research were derived from human duet carcinoma (BT474, ATCC No. HTB 20), undifferentiated lung (Chaco I, National Cancer Institute), liver hepatoblastoma (Hep-G2, ATCC No. HB8065), gastric carcinoma (KATO-III, ATCC No. HTB 103) and human colon adenocarcinoma (SW620, ATCC No. CCL 227) cancers. In addition, the non-transformed human foreskin fibroblast cell line (Hs27, ATCC No. CRL 1634) was used as a comparative control. All cell lines were obtained from the Institute of Biotechnology and Genetic Engineering, Chulalongkorn University. The five cancer cell lines were cultured in RPMI 1640 medium containing 5% (v/v) fetal calf serum (FCS), while the Hs27 cell line was cultured in Basal Iscove medium containing 5% (v/v) FCS, at 37°C with 5% (v/v) CO2 [28].
(§2) The MTT assay was performed as reported by Santos et al. and Hernandez et al.. […] The supernatant was then removed, the cells permeabilized and the formazan crystals dissolved by aspiration in 150 μl of DMSO and 25 μl of 0.1 M glycine prior to measuring the absorbance at 540 nm by a microplate reader. […] By assuming an equal mitochondrial metabolic activity per living cell, the absorbance is then related to the relative number of viable cells and so is reduced, relative to the control, by any antiproliferation and/or cytotoxic activity of the test compound.
The absorbance at 540 nm of the test compound treated cancer cells and the solvent only control was used to calculate the relative number of viable cells, setting that for the control as 100%. The relative number of viable cells, as a % of the control, was then calculated as follows: […]
(§3) where (Abs of sample) and (Abs of control) are defined as the absorbance at 540 nm of the treated cells and the control cells, respectively.
The IC50 values were graphically obtained by plotting the absorbance obtained against the corresponding different concentrations of the test compound used, and are reported as the mean ± 1 standard error (SE). Data were statistically analyzed using the Kruskal-Wallis One Way Analysis of Variance. […]

The test system of data set [2] is human colorectal cancer cell line (CRC). Details: method as in PMID 15996024. Particulars: 72 h treatment, cited from earlier work.
Data set [3] in a line: MTT antiproliferative/cytotoxic assay, non-transformed Hs27. Format: cell-based. Particulars: human, Hs27 non-transformed foreskin fibroblast cells, read-out: IC50, in vitro antiproliferative/cytotoxic activity.
Source text: (§4) The five selected cancer cell lines used in this research were derived from human duet carcinoma (BT474, ATCC No. HTB 20), undifferentiated lung (Chaco I, National Cancer Institute), liver hepatoblastoma (Hep-G2, ATCC No. HB8065), gastric carcinoma (KATO-III, ATCC No. HTB 103) and human colon adenocarcinoma (SW620, ATCC No. CCL 227) cancers. In addition, the non-transformed human foreskin fibroblast cell line (Hs27, ATCC No. CRL 1634) was used as a comparative control. All cell lines were obtained from the Institute of Biotechnology and Genetic Engineering, Chulalongkorn University. […]
as §2
(§5) The absorbance at 540 nm of the test compound treated cancer cells and the solvent only control was used to calculate the relative number of viable cells, setting that for the control as 100%. […]

In data set [4] the test system is Hep-G2 cells (liver hepatoblastoma). Nature of the data set: MTT antiproliferative/cytotoxic assay, Hep-G2. Format: cell-based. To be noted: Homo sapiens, HepG2, Hep-G2, 72 h exposure, read-out: IC50, in vitro antiproliferative/cytotoxic activity.
Source text: as §4, §2, §5

Data set [5] relates to five cancer cell lines and the control Hs27 cell line. As to the kind of experiment: MTT assay, summary over the five cancer cell lines and Hs27. It counts as cell-based. Particulars: Homo sapiens, 72 h exposure, read-out: IC50 values, range across the five cancer cell lines and the control Hs27 cell line.
Source text: as §4, §2, §5
On the technique in general: Tetrazolium dyes change colour on reduction, which living cells bring about.

Data set [6] relates to Chaco cells (undifferentiated lung cancer). Nature of the data set: MTT antiproliferative/cytotoxic assay, Chaco. It counts as cell-based. To be noted: Homo sapiens, 72 h exposure, read-out: IC50, in vitro antiproliferative/cytotoxic activity.
Source text: as §4, §2, §5

The test system of data set [7] is Hs27 cells. Nature of the data set: DNA fragmentation (agarose-TBE gel), Hs27. To be noted: Hs27, 72 h. Format: cell-based, human. The method, then: (§6) The morphology of the SW620 or Hs27 cells treated with each test compound was compared to those treated with only the DMSO solvent as the control. Cells were released by standard trypsin and aspiration, centrifugally washed at 2,000 × g at 15-25°C for 5 min and finally the cell pellet was resuspended in 200 μl of PBS. To this 20 μl of proteinase K (> 600 mAU/ml) was added and total DNA was extracted using a QIAMP mini kit (Qiagen, cat. no. 51304), as per the manufacturer's instructions. […] After electrophoresis, the gel was stained with 10 μg/ml of ethidium bromide (EtBr) for 10 min, destained in distilled water for 20 min and the DNA visualized by ultraviolet transillumination.

Data set [8] has as its system Hs27 cells. Nature of the data set: Cell morphology in culture, Hs27. To be noted: Hs27, up to 96 h, same doses as for SW620. Format: cell-based, human. The method, then:
as §6

Data set [9] concerns five human cancer cell lines (BT474, Chaco, Hep-G2, KATO-III, SW620). Nature of the data set: MTT assay, summary over the five cancer cell lines. To be noted: 72 h exposure, read-out: IC50 values, range across the five cancer cell lines. It counts as cell-based.
Source text: as §4, §2, §5

Data set [10] has as its system SW620 cells. As to the kind of experiment: Cell morphology in culture, SW620. To be noted: at IC50 ([…] / 3.0 μg/ml). It counts as cell-based, human. The method, then: as §6
Data set [11] has as its system SW620 cells (colon adenocarcinoma). Nature of the data set: MTT antiproliferative/cytotoxic assay, SW620. Particulars: for IC50 / IC50, in vitro antiproliferative/cytotoxic activity: SW620, 72 h exposure, MTT; for IC50: read-out: IC50, in vitro antiproliferative/cytotoxic activity. Format: cell-based, human.
Source text: as §1
The MTT assay was performed as reported by Santos et al. and Hernandez et al.. For each of the five cancer cell lines, 5 × 10^3 cells in 200 μl of RPMI 1640 medium containing 5% (v/v) FCS were transferred per well of a 96 well tissue culture plate, and incubated at 37°C in 5% (v/v) CO2 for 24 h prior to the addition of 2 μl/well of the test extract in dimethylsulfoxide (DMSO) at various final concentrations. The addition of 2 μl/well of DMSO alone was used as the control. Cells were then incubated as above for 72 h before 10 μl of 5 mg/ml MTT was added and incubated for another 4 h. The supernatant was then removed, the cells permeabilized and the formazan crystals dissolved by aspiration in 150 μl of DMSO and 25 μl of 0.1 M glycine prior to measuring the absorbance at 540 nm by a microplate reader. Three replications of each trial were performed. By assuming an equal mitochondrial metabolic activity per living cell, the absorbance is then related to the relative number of viable cells and so is reduced, relative to the control, by any antiproliferation and/or cytotoxic activity of the test compound.
The absorbance at 540 nm of the test compound treated cancer cells and the solvent only control was used to calculate the relative number of viable cells, setting that for the control as 100%. The relative number of viable cells, as a % of the control, was then calculated as follows:
Therelative(% )numberofviablecells = (Absofsample)×100/(Absofcontrol)
as §3
The IC50 values were graphically obtained by plotting the absorbance obtained against the corresponding different concentrations of the test compound used, and are reported as the mean ± 1 standard error (SE). Data were statistically analyzed using the Kruskal-Wallis One Way Analysis of Variance. Significance was accepted at the P < 0.05 level.

Data set [12] concerns SW620 cells. As to the kind of experiment: DNA fragmentation (agarose-TBE gel), SW620. It counts as cell-based, human. Particulars: SW620, 72 h at IC50, agarose-TBE gel. The method, then: as §6
In data set [13] the test system is KATO-III cells (gastric carcinoma). As to the kind of experiment: MTT antiproliferative/cytotoxic assay, KATO-III. It counts as cell-based. To be noted: Homo sapiens, 72 h exposure, read-out: IC50, in vitro antiproliferative/cytotoxic activity.
Source text: as §4, §2, §5

In another data set the test system is B16-F10 melanoma cells. Details: method as in PMID 20623613. To be noted: cited from earlier work.
In a further data set the test system is HeLa tumor cells. Further details: method as in PMID 19497755. Particulars: cited from earlier work.
Where [14] appears, read: read-out: IC50, antiproliferative activity.
[15] abbreviates: mean ± 1 SE, ND in Table 4 = no IC50 obtained, no significant activity in tested concentration range.

For `O=C(/C=C/c1ccc(O)c(O)c1)OCCc1ccccc1` [CAPE, caffeic acid phenethyl ester], the “fold higher IC50 of CAPE than compound 2 (cardol) on BT474” value in data set [1] (in terms of molarity, CAPE on MDA-231/MCF-7) is roughly 1.5 fold. The IC50 in [2] (setting [14]) is 22.7 µM. Moreover, the “IC50, antiproliferative activity” value in [2] was 6.47 µg/mL (≈ 22.8 µM).

In the case of `CCCCCCCCCCCCCCCc1cc(O)cc(O)c1` [Compound 2], the IC50 at 72 h in data set [3] (Hs27, 72 h exposure) was 1.3 ± 0.33 µM; in data set [3] (Hs27 non-transformed control, 72 h exposure, mean ± 1 SE) it was 5.97 ± 0.15 µg/mL. In addition, the IC50 is 5.97 ± 0.15 µg/mL in [4] (setting [15]); 1.3 ± 0.33 µM in [4]; 4.41 ± 0.15 µg/mL in data set [1] (setting [15]); 9.61 ± 0.33 µM in data set [1]; 3.13 µg/mL to 5.97 µg/mL and 6.82 µM to 13 µM in data set [5]; 5.78 ± 0.07 µg/mL in [6] (setting [15]). Besides, the IC50 in [6] is 12.6 ± 0.15 µM; in data set [9], 3.13 µg/mL to 6 µg/mL and 6.82 µM to 13.1 µM; in [11] (Homo sapiens, SW-620, 72 h, mean ± 1 SE, ND in Table 4 = no IC50 obtained, no significant activity in tested concentration range), 3 µg/mL; in [11] (Homo sapiens, SW-620, 72 h) it was 6.54 µM; in data set [11] (listed as compound 2), less than 6.8 µM; in data set [11], less than 6.81 µM. The values for the IC50 in [13] (setting [15]) and in [13] were 4.03 ± 0.13 µg/mL and 8.78 ± 0.28 µM, respectively. Further, the “evidence of fragmentation of the DNA” value in the data set with Hs27 cells [7] and in the data set on SW620 cells [12] was “neither as an apoptotic ladder nor a general degradation smear” in each case. Also, the cell morphology entry is recorded as “no morphological changes were observed” in the data set with Hs27 cells [8]; “No significant change in the cell morphology” in the data set on SW620 cells [10] (SW620, 24 h); “vacuolation could be seen inside the cells” with SW620 cells [10] (SW620, 48 h); “apparent DNA condensation within the nucleus was visible” with SW620 cells [10] (SW620, 72 h); “significantly higher levels of cells with DNA condensation within their nucleus” in the data set with SW620 cells [10] (SW620, 96 h). Moreover, the “IC50, in vitro antiproliferative/cytotoxic activity” value was less than 3.125 µg/mL in [11] (setting [15]) and less than 3.13 µg/mL in [11] (mean ± 1 SE, ND in Table 4 = no IC50 obtained, no significant activity in tested concentration range, listed as compound 2). The “fold lower IC50 on SW620 than IC50 of CAPE on CRC” value in data set [11] (in terms of molarity) is listed as “over 3.3 fold”.

With `CCCCCCCCCCCCCCCc1cc(O)cc(O)c1` [cardol (C15:0)], in the data set with B16-F10 melanoma cells, the “IC50, cytotoxicity” value was 8.352 µg/mL (≈ 26.1 µM); the complete lethality concentration was 40 μM and 13.92 μg/ml. Further, the IC50 in the data set on B16-F10 melanoma cells (read-out: IC50, cytotoxicity) is 24 µM.

Turning to `CC(C)=CC[C@H]1C[C@@]2(CC=C(C)C)C(=O)[C@](C(=O)c3ccccc3)(C(=O)C3=C2O[C@H](C(C)(C)O)C3)C1(C)C` [hyperibone A], the “IC50, antiproliferative activity” value in the data set with HeLa tumor cells was 0.091 µg/mL (≈ 0.175 µM). Also, the IC50 in the data set on HeLa tumor cells (setting [14]) is 0.176 µM.
